# Measurements published in patent US4539150A, “Benzothiazepine derivatives and their methods of preparation” (Mitsui Toatsu Chemicals, Inc., priority 1983, dated 1985).
# Counter-ions that a name gives are not always drawn.
# Key:
# [1] = biological target: T1, angiotensin converting enzyme (ACE) (Oryctolagus cuniculus, UniProt P12822); assay: in vitro evaluation of inhibitory effects on ACE activity (method of Cushman); assay type: biochemical; details: ACE isolated from rabbit lungs; for IC50: Table 1, in vitro
# T1 construct: Using ACE isolated from rabbit lungs; from tissue; host or cells: rabbit lungs
# T1 sequence (P12822 34-1310): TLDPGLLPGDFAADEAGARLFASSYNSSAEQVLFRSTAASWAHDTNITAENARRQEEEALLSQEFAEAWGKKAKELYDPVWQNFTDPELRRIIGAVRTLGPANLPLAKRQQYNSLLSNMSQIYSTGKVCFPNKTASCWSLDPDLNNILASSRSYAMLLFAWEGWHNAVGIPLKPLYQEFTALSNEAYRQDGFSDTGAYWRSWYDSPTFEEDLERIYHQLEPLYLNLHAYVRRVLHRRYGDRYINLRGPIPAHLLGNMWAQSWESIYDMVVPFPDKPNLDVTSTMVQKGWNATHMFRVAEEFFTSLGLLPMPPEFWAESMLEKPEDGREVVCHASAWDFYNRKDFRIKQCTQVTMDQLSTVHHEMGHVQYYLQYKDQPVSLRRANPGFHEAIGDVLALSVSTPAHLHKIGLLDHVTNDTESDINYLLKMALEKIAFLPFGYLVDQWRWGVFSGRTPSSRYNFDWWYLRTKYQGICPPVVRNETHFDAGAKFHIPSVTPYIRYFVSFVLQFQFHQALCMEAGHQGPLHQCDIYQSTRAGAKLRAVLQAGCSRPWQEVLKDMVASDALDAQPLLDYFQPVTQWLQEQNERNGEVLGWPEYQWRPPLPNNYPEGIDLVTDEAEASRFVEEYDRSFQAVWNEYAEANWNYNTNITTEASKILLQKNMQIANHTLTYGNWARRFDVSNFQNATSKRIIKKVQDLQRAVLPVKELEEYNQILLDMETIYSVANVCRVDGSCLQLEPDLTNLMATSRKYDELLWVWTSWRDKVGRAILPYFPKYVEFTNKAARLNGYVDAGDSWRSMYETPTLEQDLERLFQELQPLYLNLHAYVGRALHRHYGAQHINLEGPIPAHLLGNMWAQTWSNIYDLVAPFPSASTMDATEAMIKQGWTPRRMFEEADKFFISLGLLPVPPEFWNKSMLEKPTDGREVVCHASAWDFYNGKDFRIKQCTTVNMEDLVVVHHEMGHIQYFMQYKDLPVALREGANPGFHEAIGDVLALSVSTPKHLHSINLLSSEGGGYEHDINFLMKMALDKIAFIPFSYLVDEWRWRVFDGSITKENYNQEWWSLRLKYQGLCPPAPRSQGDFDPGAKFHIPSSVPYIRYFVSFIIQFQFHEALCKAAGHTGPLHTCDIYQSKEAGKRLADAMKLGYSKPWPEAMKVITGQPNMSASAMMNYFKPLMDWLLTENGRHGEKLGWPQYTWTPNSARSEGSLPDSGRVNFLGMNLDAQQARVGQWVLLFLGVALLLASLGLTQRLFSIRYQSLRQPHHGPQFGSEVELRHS
# Procedure: The efficacy of the compounds of the present invention can be tested by evaluating their inhibitory effects on the angiotensin converting enzyme (ACE). Using ACE isolated from rabbit lungs, in vitro evaluation of inhibitory effects on ACE activity was carried out according to the method of Cushman [Biochem. Pharmacol., 20, 1637(1971)]. […] Some of the compounds obtained in the other examples were also tested by in vitro evaluation of inhibitory effects on ACE activity and the results thus obtained are summarized in Table 1.
# [2] = test system: spontaneously occurring hypertensive rats (SHR); assay: depressor effect after oral administration in spontaneously occurring hypertensive rats (SHR), systolic blood pressure of caudal artery; assay type: in vivo, rat; details: 50 mg/kg oral, unanesthetized male SHR
# Procedure: The compounds of the present invention can also be tested by evaluating their depressor effects. Such evaluation was carried out by using spontaneously occurring hypertensive rats (SHR). Male rats, aged 20 weeks or more, were fasted for 17 hours. Then, under an unanesthetized condition, the systolic blood pressure of their caudal artery was nonsurgically measured before medication as well as 2,4,6 and 24 hours after medication. Test compounds were orally administered to groups of 3-5 rats showing a systolic blood pressure of 180 mmHg or above.
# When the compound of Example 10 was orally administered in a dose of 50 mg/kg, the blood pressure was reduced by 26, 34 and 46 mmHg after the lapse of 2, 4 and 6 hours, respectively.
Compound,IC50 [1] [nM],other results
"O=C(O)CN1C(=O)C(NC(CCc2ccccc2)C(=O)O)CSc2ccccc21 (stereo not drawn) [Example 8, 3-(1-carboxy-3-phenylpropylamino)-5-carboxymethyl-2,3-dihydro-1,5-benzothiazepin-4(5H)-one]",,"inhibition at 0.01 µM ([1]; 0.01 μM, read-out: inhibited ACE activity): 14.8%; inhibition at 0.1 µM ([1]; 0.1 μM, read-out: inhibited ACE activity): 77.8%"
"CC(NC1CSc2ccccc2N(CC(=O)O)C1=O)C(=O)O (stereo not drawn) [Example 13, 5-carboxymethyl-3-(1-carboxyethylamino)-2,3-dihydro-1,5-benzothiazepin-4(5H)-one hydrochloride]",470,
"CCOC(=O)C(CCc1ccccc1)NC1CSc2ccccc2N(CC(=O)O)C1=O.Cl (stereo not drawn) [Example 10, 5-carboxymethyl-3-(1-ethoxycarbonyl-3-phenylpropylamino)-2,3-dihydro-1,5-benzothiazepin-4(5H)-one hydrochloride]",,"depressor effect, persistence ([2]; 24 hours): found to persist even after 24 hours; blood pressure was reduced by ([2]; after 2 hours): 26 mmHg; blood pressure was reduced by ([2]; after 4 hours): 34 mmHg; blood pressure was reduced by ([2]; after 6 hours): 46 mmHg"
"CCOC(=O)CNC1CSc2ccccc2N(CC(=O)O)C1=O (stereo not drawn) [Example 15, 5-carboxymethyl-3-ethoxycarbonylmethylamino-2,3-dihydro-1,5-benzothiazepin-4(5H)-one hydrochloride]",> 100000,
"CCOC(=O)C(C)NC1CSc2ccccc2N(CC(=O)O)C1=O (stereo not drawn) [Example 12, 5-carboxymethyl-3-(1-ethoxycarbonylethylamino)-2,3-dihydro-1,5-benzothiazepin-4(5H)-one hydrochloride]",7000,

# Continued, in another order:
IC50 [1] [nM],Compound,other results
8200,"O=C(O)CNC1CSc2ccccc2N(CC(=O)O)C1=O (stereo not drawn) [Example 16, 5-carboxymethyl-3-carboxymethylamino-2,3-dihydro-1,5-benzothiazepin-4(5H)-one hydrochloride]",
10,"CCCCCCCCC(NC1CSc2ccccc2N(CC(=O)O)C1=O)C(=O)O (stereo not drawn) [Example 19, 5-carboxymethyl-3-(1-carboxynonylamino)-2,3-dihydro-1,5-benzothiazepin-4(5H)-one]",
160,"CCCCCCCCC(NC1CSc2ccccc2N(CC(=O)O)C1=O)C(=O)OCC (stereo not drawn) [Example 18, 5-carboxymethyl-3-(1-ethoxycarbonylnonylamino)-2,3-dihydro-1,5-benzothiazepin-4(5H)-one]",
